Results from patent US20090104145A1, “Mixtures of Anthranilamide Invertebrate Pest Control Agents” (priority 2004, published 2009).
Read-outs that look alike come from different tables or passages of the source.

Key:
Test in all cases: whole plant or invertebrate
Assay type in all cases: in vivo
[1] = test system: silverleaf whitefly (Bemisia argentifolii Bellows and Perring); conditions: Bemisia argentifolii, in Gossypium hirsutum, read-out: % Mortality (observed)
Description: (§1) The pest control protection afforded by the mixtures or compositions is not limited, however, to these species. The analysis of synergism or antagonism between the mixtures or compositions was determined using Colby's equation. The average % mortality data for the test compounds alone were inserted into the Colby's equation. If the observed average % mortality was higher than “p”, the expected % mortality, the mixture or composition had synergistic effects. If the observed average % mortality was equal to or lower than the expected mortality, the mixture or composition either had no synergistic effect or an antagonistic effect. In these tests, Compound 1 is the compound of Formula 1.
For evaluating control of silverleaf whitefly (Bemisia argentifolii Bellows and Perring) through contact and/or systemic means, each test unit consisted of a small open container with a 12- to 14-day-old cotton plant inside. This was pre-infested by placing test units into cages infested with adult whiteflies so that oviposition on the cotton leaves could occur. The adults were removed from the plants with an air-blast nozzle, and the test units were capped. The test units were then stored 2 to 3 days before spraying.
(§2) Test compounds were formulated using a solution containing 10% acetone, 90% water and 300 ppm X-77® Spreader Lo-Foam Formula non-ionic surfactant containing alkylarylpolyoxyethylene, free fatty acids, glycols and isopropanol (Loveland Industries, Inc.) to provide the desired concentration in ppm. Formulated test solutions were then applied in 1 mL volumes through a SUJ2 atomizer nozzle with ⅛ JJ custom body (Spraying Systems Co.) positioned 1.27 cm (0.5 inches) above the top of each test unit.
The results for all experimental compositions in this test were replicated three times. After spraying of the formulated test composition, each test unit was allowed to dry for 1 hour and the cap removed. The test units were held for 13 days in a growth chamber at 28° C. and 50-70% relative humidity.

[2] = test system: green peach aphid (Myzus persicae Sulzer); conditions: Myzus persicae, in Raphanus sativus
Description: as §1, §2
(§3) For evaluating control of green peach aphid (Myzus persicae Sulzer) through contact and/or systemic means, each test unit consisted of a small open container with a 12- to 15-day-old radish plant inside. This was pre-infested by placing on a leaf of the test plant 30 to 40 aphids on a piece of leaf excised from a culture plant (cut-leaf method). The larvae moved onto the test plant as the leaf piece desiccated. After pre-infestation, the soil of the test unit was covered with a layer of sand.
(§4) Test compounds were formulated and sprayed as described in Test A, replicated three times. After spraying of the formulated test compound, each test unit was allowed to dry for 1 hour and then a black, screened cap was placed on top. The test units were held for 6 days in a growth chamber at 19-21° C. and 50-70% relative humidity.

[3] = test system: corn planthopper (Pereginus maidis); conditions: read-out: % mortality (obs)
Description: as §1, §2
For evaluating control of corn planthopper (Pereginus maidis) through contact and/or systemic means, each test unit consisted of a small open cylindrical container with a 3- to 4-day-old corn (maize) plant (spike) inside. White sand was added to the top of the soil prior to application. Test compounds were formulated and sprayed with 3 replications as described for Test A. After spraying, the test units were allowed to dry for 1 hour before they were post-infested with 10 to 20 corn planthoppers (18- to 20-day-old nymphs) by sprinkling them onto the sand with a salt shaker. A black, screened cap was placed on the top of each container. The test units were held for 6 days in a growth chamber at 19-21° C. and 50-70% relative humidity.

[4] = test system: western flower thrip (Frankliniella occidentalis Pergande); conditions: Frankliniella occidentalis
Description: as §1, §2
For evaluating control of the western flower thrip (Frankliniella occidentalis Pergande) through contact and/or systemic means, each test unit consisted of a small open container with a 5- to 7-day-old bean (var. Soleil) plant inside.
Test solutions were formulated and sprayed with 3 replications as described for Test A. After spraying, the test units were allowed to dry for 1 hour, 22 to 27 adult thrips were added to each unit and then a black, screened cap was placed on top. The test units were held for 7 days at 25° C. and 45-55% relative humidity.

[5] = test system: cotton melon aphid (Aphis gossypii Glover); conditions: Aphis gossypii
Description: as §1, §2
as §3, with “cotton melon” for “green peach”, “(Aphis gossypii Glover)” for “(Myzus persicae Sulzer)”, “6-” for “12-”, “7-day-old cotton” for “15-day-old radish”
as §4, with “described for” for “described in”, “Test A. The applications were” for “Test A,”, “test compounds,” for “test compound,”

[6] = test system: potato leafhopper (Empoasca fabae Harris); conditions: Empoasca fabae, Imidacloprid 0 ppm, read-out: % Mortality (observed)
Description: as §1, §2
For evaluating control of potato leafhopper (Empoasca fabae Harris) through contact and/or systemic means, each test unit consisted of a small open container with a 5- to 6-day-old Longio bean plant (primary leaves emerged) inside. White sand was added to the top of the soil, and one of the primary leaves was excised prior to application. Test compounds were formulated and sprayed with 3 replications as described for Test A. After spraying, the test units were allowed to dry for 1 hour before they were infested with 5 potato leafhoppers (18- to 21-day-old adults). A black, screened cap was placed on the top of each container. The test units were held for 6 days in a growth chamber at 19-21° C. and 50-70% relative humidity.

[7] = rate 0.5 ppm, read-out: % mortality (obs)
[8] = rate 2 ppm, read-out: % mortality (obs)

For `CNC(=O)c1cc(C#N)cc(C)c1NC(=O)c1cc(Br)nn1-c1ncccc1Cl` [Compound 1, 3-bromo-N-[4-cyano-2-methyl-6-[(methylamino)carbonyl]phenyl]-1-(3-chloro-2-pyridinyl)-1H-pyrazole-5-carboxamide], the mortality at 7 ppm ([1]; Compound 1 7 ppm alone) was 58%, the mortality at 9 ppm ([1]; Compound 1 9 ppm alone) was 69% and the mortality at 12 ppm ([1]; Compound 1 12 ppm alone) was 72%. For the same compound, the mortality at 0.5 ppm ([2]; 0.5 ppm, read-out: % Mortality (observed)) was 14%, the mortality at 1.1 ppm ([2]; 1.1 ppm, read-out: % Mortality (observed)) was 22% and the mortality at 2.1 ppm ([2]; 2.1 ppm, read-out: % Mortality (observed)) was 49%. For the same compound, the mortality at 0.5 ppm [2, 7] was 21%, the mortality at 1 ppm ([2]; rate 1 ppm, read-out: % mortality (obs)) was 35% and the mortality at 2 ppm [2, 8] was 71%. The mortality at 0.3 ppm ([3]; rate 0.3 ppm) was 15%, the mortality at 3 ppm ([3]; rate 3 ppm) was 26% and the mortality at 30 ppm ([3]; rate 30 ppm) was 90%. It also gave a mortality at 0.3 ppm ([4]; Compound 1 0.3 ppm alone, read-out: % Mortality (observed)) of 25%, a mortality at […] ([4]; Compound 1 1.3 ppm alone, read-out: % Mortality (observed)) of 55% and a mortality at 6 ppm ([4]; Compound 1 6 ppm alone, read-out: % Mortality (observed)) of 72%. For the same compound, the mortality at 0.3 ppm ([4]; rate 0.3 ppm, read-out: % mortality (obs)) was 42%, the mortality at […] ([4]; rate 1.5 ppm, read-out: % mortality (obs)) was 50% and the mortality at 6 ppm ([4]; rate 6 ppm, read-out: % mortality (obs)) was 61%. For the same compound, the mortality at 0.08 ppm ([5]; Compound 1 0.08 ppm, read-out: % Mortality (observed)) was 15%, the mortality at 0.4 ppm ([5]; Compound 1 0.4 ppm, read-out: % Mortality (observed)) was 18% and the mortality at 1.8 ppm ([5]; Compound 1 1.8 ppm, read-out: % Mortality (observed)) was 66%. For the same compound, the mortality at 0.1 ppm ([5]; rate 0.1 ppm, read-out: % mortality (obs)) was 22%, the mortality at 0.5 ppm [5, 7] was 37% and the mortality at 2 ppm [5, 8] was 76%. The mortality at 0.3 ppm ([6]; Compound 1 0.3 ppm) was 0%, the mortality at 2.3 ppm ([6]; Compound 1 2.3 ppm) was 0% and the mortality at 18 ppm ([6]; Compound 1 18 ppm) was 100%.
